# Results taken from article PMC8222254, “Self-assembly of an anion receptor with metal-dependent kinase inhibition and potent in vitro anti-cancer properties” (Nature Communications, 2021).
# pIC50: −log10 of the molar value. “And” between values parts separate entries of the source, which are not always exact repeats. Equal values may be shown once. Read-outs that look alike come from different tables or passages of the source.
# Key:
# Assay in all cases: Chemosensitivity, 96 h continuous exposure, MTT assay
# Format in all cases: cell-based, human
# HT-29 = test system: HT-29
# How it was run: (§1)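 Growth inhibition is measured by MTT after cells are dosed for 96 h without washout. The 50% growth-reduction concentration is then interpolated from the curves.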
# BxPC3 = test system: BxPC3
# How it was run: as §1
# ARPE-19 non-cancer cells = test system: ARPE-19 non-cancer cells
# How it was run: as §1
# PSN1 = test system: PSN1
# How it was run: (§2)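 H460 lung and PSN1 pancreatic carcinoma lines, grown in RPMI-1640 with 10% FBS, were plated at 2 × 10^3 cells/well, dosed across a concentration range for 96 h, then given MTT for 4 h. Formazan absorbance at 540 nm gave IC50 values.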
# MCF10A non-cancer cells = test system: MCF10A non-cancer cells
# How it was run: as §1
# H460 = test system: H460
# How it was run: as §2
# MiaPaCa2 = test system: MiaPaCa2
# How it was run: as §1
compound,measurement,setting,value
O=P([O-])([O-])[O-].[Cu+2].[Cu+2].[Cu+2].c1ccc(-c2csc(NCCN(CCNc3nc(-c4ccccn4)cs3)CCNc3nc(-c4ccccn4)cs3)n2)nc1.c1ccc(-c2csc(NCCN(CCNc3nc(-c4ccccn4)cs3)CCNc3nc(-c4ccccn4)cs3)n2)nc1 [[L2Cu3(PO4)]3+],pIC50,"HT-29; HT29, mean of replicates, read-out: Mean IC50",6.49
same,pIC50,"HT-29; HT29, read-out: Mean IC50 values",6.49
same,pIC50,"HT-29; HT-29, single replicate, read-out: IC50 values for each replicate",6.65 and 6.58 and 6.23 and 6.49 and 6.64
same,Selectivity index (ARPE19),HT-29; IC50 ARPE-19 / IC50 HT29,502.36
same,Selectivity index (MCF10A),HT-29; IC50 MCF10A / IC50 HT29,151.48
same,"Relative potency (+ anion to no anion), Ratio + anion:no anion","HT-29; ratio of IC50, HT29",1.52
same,"Selectivity indices relative to ARPE-19, Ratio + anion:no anion","HT-29; ratio of SI (ARPE-19), HT29",2.043
same,"Selectivity indices relative to MCF10A, Ratio + anion:no anion","HT-29; ratio of SI (MCF 10A), HT29",0.672
same,pIC50,"BxPC3; BXPC3, mean of replicates, read-out: Mean IC50",5.77
same,pIC50,"BxPC3; BXPC3, read-out: Mean IC50 values",5.77
same,pIC50,"BxPC3; BXPC3, single replicate, read-out: IC50 values for each replicate",6.15 and 5.71 and 5.68 and 5.65 and 5.84
same,Selectivity index (ARPE19),BxPC3; IC50 ARPE-19 / IC50 BXPC3,97.37
same,Selectivity index (MCF10A),BxPC3; IC50 MCF10A / IC50 BXPC3,29.36
same,"Relative potency (+ anion to no anion), Ratio + anion:no anion","BxPC3; ratio of IC50, BXPC3",5.74
same,"Selectivity indices relative to ARPE-19, Ratio + anion:no anion","BxPC3; ratio of SI (ARPE-19), BXPC3",0.542
same,"Selectivity indices relative to MCF10A, Ratio + anion:no anion","BxPC3; ratio of SI (MCF 10A), BXPC3",0.178
same,pIC50,"ARPE-19 non-cancer cells; ARPE-19, mean of replicates, read-out: Mean IC50",3.79
same,pIC50,"ARPE-19 non-cancer cells; ARPE-19, single replicate, read-out: IC50 values for each replicate",3.84 and 3.80 and 3.76 and 3.74
same,pIC50,"ARPE-19 non-cancer cells; ARPE-19 non-cancer, read-out: Mean IC50 values",3.79
same,"Relative potency (+ anion to no anion), Ratio + anion:no anion","ARPE-19 non-cancer cells; ratio of IC50, ARPE-19",3.11
same,Selectivity index (ARPE19),PSN1; IC50 ARPE-19 / IC50 PSN1,9.29
same,Selectivity index (MCF10A),PSN1; IC50 MCF10A / IC50 PSN1,2.80
same,pIC50,"PSN1; PSN1, mean of replicates, read-out: Mean IC50",4.75
same,pIC50,"PSN1; PSN1, read-out: Mean IC50 values",4.75
same,pIC50,"PSN1; PSN1, single replicate, read-out: IC50 values for each replicate",4.73 and 4.76 and 4.80
same,"Relative potency (+ anion to no anion), Ratio + anion:no anion","PSN1; ratio of IC50, PSN1",2.73
same,"Selectivity indices relative to ARPE-19, Ratio + anion:no anion","PSN1; ratio of SI (ARPE-19), PSN1",1.138
same,"Selectivity indices relative to MCF10A, Ratio + anion:no anion","PSN1; ratio of SI (MCF 10A), PSN1",0.374
same,pIC50,"MCF10A non-cancer cells; MCF10A non-cancer, read-out: Mean IC50 values",4.31
same,pIC50,"MCF10A non-cancer cells; MCF10A, mean of replicates, read-out: Mean IC50",4.31
same,pIC50,"MCF10A non-cancer cells; MCF10A, single replicate, read-out: IC50 values for each replicate",4.33 and 4.29 and 4.23 and 4.39
same,"Relative potency (+ anion to no anion), Ratio + anion:no anion","MCF10A non-cancer cells; ratio of IC50, MCF10A",1.02
same,pIC50,"H460; H460, mean of replicates, read-out: Mean IC50",5.85
same,pIC50,"H460; H460, read-out: Mean IC50 values",5.85
same,IC50,"H460; H460, single replicate, read-out: IC50 values for each replicate",592 nM and 533 nM and 1.4 µM and 2.22 µM and 504 nM and 1.98 µM (2×) and 2.1 µM
same,Selectivity index (ARPE19),H460; IC50 ARPE-19 / IC50 H460,115.82
same,Selectivity index (MCF10A),H460; IC50 MCF10A / IC50 H460,34.92
same,"Relative potency (+ anion to no anion), Ratio + anion:no anion","H460; ratio of IC50, H460",5.12
same,"Selectivity indices relative to ARPE-19, Ratio + anion:no anion","H460; ratio of SI (ARPE-19), H460",0.607
same,"Selectivity indices relative to MCF10A, Ratio + anion:no anion","H460; ratio of SI (MCF 10A), H460",0.200
same,Selectivity index (ARPE19),MiaPaCa2; IC50 ARPE-19 / IC50 MiaPaCa2,1.36
same,Selectivity index (MCF10A),MiaPaCa2; IC50 MCF10A / IC50 MiaPaCa2,0.41
same,pIC50,"MiaPaCa2; MiaPaCa2, mean of replicates, read-out: Mean IC50",3.92
same,pIC50,"MiaPaCa2; MiaPaCa2, read-out: Mean IC50 values",3.92
same,pIC50,"MiaPaCa2; MiaPaCa2, single replicate, read-out: IC50 values for each replicate",3.97 and 3.84 and 3.96
same,"Relative potency (+ anion to no anion), Ratio + anion:no anion","MiaPaCa2; ratio of IC50, MiaPaCa2",10.22
same,"Selectivity indices relative to ARPE-19, Ratio + anion:no anion","MiaPaCa2; ratio of SI (ARPE-19), MiaPaCa2",0.305
same,"Selectivity indices relative to MCF10A, Ratio + anion:no anion","MiaPaCa2; ratio of SI (MCF 10A), MiaPaCa2",0.100
